≈ marks a conversion by molar mass, not a printed value.
Experiments:
Assay in all cases: MIC/MBC antibiotic sensitivity (CLSI)
Assay type in all cases: cell-based
[1] = system: Burkholderia multivorans (CBC 020)
Experimental: (§1) The new compounds of the invention were synthesized following the general method of preparation (Tetrahedron, 2001, 57, 1671-1675), from the reaction between an intermediary compound of the acyl thiourea and HgCl2 in presence of trimethylamine. The products were adequately characterized regarding its chemistry. The antibacterial activity of the new compounds was assayed against two Gram-positive reference strains: Staphylococcus aureus (ATCC6538) and Bacillus cereus (ATCC10876), a fermenting Gram-negative strain: Escherichia coli (ATCC25922), and 26 non-fermenting Gram-negative isolates, including 3 reference strains: Pseudomonas aeruginosa (PAO1), Bordetella bronchiseptica (9.73H+), and Inquilinus limosus (DSM16000), and 23 isolates recovered from patients suffering from cystic fibrosis, including one Achromobacter xylosoxidans isolate, and 22 isolates belonging to the Burkholderia cepacia complex. The later were selected because they presented resistance to a high number of antimicrobial compounds, among a panel of 125 clinical isolates previously analyzed for its resistance against 17 antimicrobial compounds (1,2). The antibiotic sensitivity studies were performed by applying two quantitative methods which allow to determine the minimum inhibitory concentration (MIC) and the minimum bactericidal concentration (MBC).
(§2) The compounds obtained in Examples 1 and 2 were assayed against 23 isolates recovered from the sputum of patients suffering from cystic fibrosis being treated at the Sor Maria Ludovica Children Hospital (La Plata, Buenos Aires, Argentina). Nineteen of these isolates were selected for being highly resistant to most of the antimicrobial agents of clinical use from a panel of 125 isolates previously characterized in Martina et al. (1). Reference strains were also included: Gram (+) bacteria: B. cereus and S. aureus, fermenting Gram (−) bacteria: E. coli, and non-fermenting Gram (−) bacteria: Inquilinus limosus (DSM16000), B. bronchiseptica, and Pseudomonas aeruginosa (PAO1). The antibiotic sensitivity studies were performed applying two quantitative methods which allow to determine the minimum inhibitory concentration (MIC) and the minimum bactericidal concentration (MBC) according to the criteria established by the Clinical and Laboratory Standards Institute (CLSI) (4). For comparative purposes, three antibiotics commonly used in the treatment of pulmonary infections in cystic fibrosis patients were included in the study: tobramycin, ceftazidime and meropenem.

[2] = system: Bordetella bronchiseptica (9.73H+); conditions: B. bronchiseptica (9.73H+)
Experimental: as §1, §2

[3] = system: Burkholderia cenocepacia (CBC 032); conditions: Burkholderia cenocepacia; Meropenem, CLSI criteria; B. cenocepacia (CBC 032); read-out: MIC (R/I/S category)
Experimental: as §1, §2

[4] = system: Burkholderia seminalis (CBC 040); conditions: Burkholderia seminalis; Meropenem, CLSI criteria; B. seminalis (CBC 040); read-out: MIC (R/I/S category)
Experimental: as §1, §2

[5] = system: Staphylococcus aureus (ATCC6538); conditions: Staphylococcus aureus, S. aureus (ATCC6538)
Experimental: as §1, §2

[6] = system: Burkholderia seminalis (CBC 042); conditions: Burkholderia seminalis; Meropenem, CLSI criteria; B. seminalis (CBC 042); read-out: MIC (R/I/S category)
Experimental: as §1, §2

[7] = system: Burkholderia multivorans (CBC 018)
Experimental: as §1, §2

[8] = system: Burkholderia cenocepacia (CBC 031); conditions: Burkholderia cenocepacia; Meropenem, CLSI criteria; B. cenocepacia (CBC 031); read-out: MIC (R/I/S category)
Experimental: as §1, §2

[9] = system: Escherichia coli (ATCC25922); conditions: Escherichia coli, E. coli (ATCC25922)
Experimental: as §1, §2

[10] = system: Burkholderia cenocepacia (CBC 023); conditions: Burkholderia cenocepacia; Meropenem, CLSI criteria; B. cenocepacia (CBC 023); read-out: MIC (R/I/S category)
Experimental: as §1, §2

[11] = system: Burkholderia cenocepacia (CBC 024); conditions: Burkholderia cenocepacia; Meropenem, CLSI criteria; B. cenocepacia (CBC 024); read-out: MIC (R/I/S category)
Experimental: as §1, §2

[12] = system: Burkholderia cenocepacia (CBC 033); conditions: Burkholderia cenocepacia; Meropenem, CLSI criteria; B. cenocepacia (CBC 033); read-out: MIC (R/I/S category)
Experimental: as §1, §2

[13] = system: Burkholderia cenocepacia (HE001); conditions: Burkholderia cenocepacia; Meropenem, CLSI criteria; B. cenocepacia (HE001); read-out: MIC (R/I/S category)
Experimental: as §1, §2

[14] = system: Pseudomonas aeruginosa (PAO1); conditions: Pseudomonas aeruginosa, P. aeruginosa (PAO1)
Experimental: as §1, §2

B. contaminans (HNBC001) = conditions: Meropenem, CLSI criteria, read-out: MIC (R/I/S category)
Experimental: as §1, §2

[15] = system: Burkholderia cepacia (CBC 010)
Experimental: as §1, §2

[16] = system: Inquilinus limosus (DSM16000)
Experimental: as §1, §2

[17] = system: Burkholderia cepacia (CBC 011)
Experimental: as §1, §2

[18] = system: Burkholderia multivorans (CBC 015)
Experimental: as §1, §2

[19] = system: Burkholderia multivorans (CBC 021)
Experimental: as §1, §2

[20] = system: Burkholderia cenocepacia (CBC 036); conditions: Burkholderia cenocepacia; Meropenem, CLSI criteria; B. cenocepacia (CBC 036); read-out: MIC (R/I/S category)
Experimental: as §1, §2

[21] = system: Burkholderia multivorans (CBC 019)
Experimental: as §1, §2

[22] = system: Burkholderia cenocepacia (CBC 029); conditions: Burkholderia cenocepacia; Meropenem, CLSI criteria; B. cenocepacia (CBC 029); read-out: MIC (R/I/S category)
Experimental: as §1, §2

[23] = system: Burkholderia cenocepacia (CBC 035)
Experimental: as §1, §2

MIC ([1]; Burkholderia multivorans, Meropenem, CLSI criteria, B. multivorans (CBC 020), read-out: MIC (R/I/S category)): < 4 µg/mL
MIC ([2]; read-out: MIC): < 0.48 µg/mL
MIC [3]: > 16 µg/mL
MIC [4]: > 16 µg/mL
MIC ([5]; read-out: MIC): < 0.48 µg/mL
MIC [6]: > 16 µg/mL
MIC ([7]; Burkholderia multivorans, Meropenem, CLSI criteria, B. multivorans (CBC 018), read-out: MIC (R/I/S category)): < 4 µg/mL
MIC [8]: > 16 µg/mL
MIC ([9]; read-out: MIC): < 0.48 µg/mL
MIC [10]: > 16 µg/mL
MIC [11]: > 16 µg/mL
MIC [12]: > 16 µg/mL
MIC [13]: > 16 µg/mL
MIC ([14]; read-out: MIC): < 0.48 µg/mL
MIC (B. contaminans (HNBC001)): > 16 µg/mL
MIC ([15]; Burkholderia cepacia, Meropenem, CLSI criteria, B. cepacia (CBC 010), read-out: MIC (R/I/S category)): < 4 µg/mL
MIC ([16]; read-out: MIC): < 0.48 µg/mL
MIC ([17]; Burkholderia cepacia, Meropenem, CLSI criteria, B. cepacia (CBC 011), read-out: MIC (R/I/S category)): < 4 µg/mL
MIC ([18]; Burkholderia multivorans, Meropenem, CLSI criteria, B. multivorans (CBC 015), read-out: MIC (R/I/S category)): < 4 µg/mL
MIC ([19]; Burkholderia multivorans, Meropenem, CLSI criteria, B. multivorans (CBC 021), read-out: MIC (R/I/S category)): < 4 µg/mL
MIC [20]: > 16 µg/mL
MIC ([21]; Burkholderia multivorans, Meropenem, CLSI criteria, B. multivorans (CBC 019), read-out: MIC (R/I/S category)): < 4 µg/mL
MIC [22]: > 16 µg/mL
MIC ([23]; Burkholderia cenocepacia, Meropenem, CLSI criteria, B. cenocepacia (CBC 035), read-out: MIC (R/I/S category)): < 4 µg/mL
Structure (SMILES): C[C@@H](O)[C@H]1C(=O)N2C(C(=O)O)=C(S[C@@H]3CN[C@H](C(=O)N(C)C)C3)[C@H](C)[C@H]12 [Meropenem, meropenem]
MBC ([1]; Burkholderia multivorans (CBC 020)): 31.2 µg/mL (≈ 81.5 µM)
MBC ([2]; read-out: MBC): < 0.48 µg/mL
MBC ([5]; read-out: MBC): < 0.48 µg/mL
MBC ([7]; Burkholderia multivorans (CBC 018), read-out: MBC): 3.9 µg/mL (≈ 10.2 µM)
MBC ([9]; read-out: MBC): < 0.48 µg/mL
MBC ([14]; read-out: MBC): < 0.48 µg/mL
MBC ([15]; Burkholderia cepacia (CBC 010)): 3.9 µg/mL (≈ 10.2 µM)
MBC [16]: < 0.48 µg/mL
MBC ([17]; Burkholderia cepacia (CBC 011)): > 62.5 µg/mL
MBC ([18]; Burkholderia multivorans (CBC 015), read-out: MBC): 3.9 µg/mL (≈ 10.2 µM)
MBC ([19]; Burkholderia multivorans (CBC 021)): 7.81 µg/mL (≈ 20.4 µM)
MBC ([21]; Burkholderia multivorans (CBC 019)): 7.81 µg/mL (≈ 20.4 µM)
MBC ([23]; Burkholderia cenocepacia (CBC 035), read-out: MBC): 15.6 µg/mL (≈ 40.7 µM)

Reference: US10857110B2, “Antibacterial compounds” (CONSEJO NACIONAL DE INVESTIGACIONES CIENTÍFICAS Y TÉCNICAS …, priority 2016, dated 2020)
